{"source": "patent US20090143419A1", "about": "“METHODS AND COMPOSITIONS FOR CONTROLLING ECTOPARASITES” (HATCHTECH PTY LTD, priority 2005, published 2009)", "key": {"[1]": {"test_system": "Plutella xylostella eggs (Waite strain)", "test": "Effect of added metal ions (FeSO4) on inhibition of Plutella xylostella egg hatching", "format": "in vivo", "details": "Table 17", "method": "Within 24 hours of collection the following experimental design was chosen. Batches of eggs were exposed to either 10 mM 6,6′-dimethyl-2,2′-dipyridyl or solvent only (methanol) for 2 seconds. All batches of eggs were allowed to air dry for 20 minutes at room temperature. The eggs were then given a 2 second exposure to FeSO4 at either 10, 5 or 1 mM, air dried and put in the incubator at 24° C. and allowed to hatch over the next 6 days. In addition, a positive control of 10 mM 6,6′-dimethyl-2,2′-dipyridyl was set up in which eggs were exposed to this compound for 2 seconds, air dried and placed in the incubator.\nWithin 24 hours of collection the following experimental design was chosen. Batches of eggs were exposed to 10 mM 5,5′dimethyl-2,2′-dipyridyl or solvent only (methanol) for 2 seconds. All batches of eggs were allowed to air dry for 20 minutes at room temperature. The eggs were then given a 2 second exposure to FeSO4 at 10, 5 or 1 mM, air dried and put in an incubator at 24° C. and allowed to hatch over the next 6 days. In addition, a positive control of 10 mM, 5,5′-dimethyl-2,2′-dipyridyl was set up in which eggs were exposed to this compound for 2 seconds, air dried and placed in the incubator."}, "[2]": {"test_system": "Plutella xylostella eggs (Waite strain)", "test": "Egg hatching of Plutella xylostella", "procedure": "The egg masses were then placed in a humid box at 25 degrees until egg hatch. Control eggs were exposed to absolute methanol as described above. At day 6 post laying the eggs were assessed from the different treatments and the percentage of egg hatch determined relative to the control as shown in Table 9.\nBatches of Plutella eggs that were laid on either fine cloth or parafilm were dipped in a specific inhibitor solution for between 2-10 seconds, the excess solution was drained by blotting with dry tissue paper. The egg masses were then placed in a humid box at 25 degrees until egg hatch. Control eggs were exposed to absolute methanol as described above or not treated. At day 6 post laying the eggs were assessed from the different treatments and the percentage of egg hatch determined relative to the controls as shown in Tables 10 and 11.\nBatches of Plutella eggs that were laid on fine cloth were dipped in a specific inhibitor solution for approximately 2 seconds, the excess solution was drained by blotting with dry tissue paper. The egg masses were then placed in a humid box at 25 degrees until egg hatch. Control eggs were exposed to absolute methanol as described above or not treated. At day 6 post laying the eggs were assessed from the different treatments and the percentage of egg hatch determined relative to the control as shown in Table 12.\nThe egg masses were then placed in a humid box at 25 degrees until egg hatch. Control eggs were exposed to absolute ethanol as described above. On day 6 post laying the eggs were assessed from the different treatments and the percentage of egg hatch determined relative to the control."}, "B. ovis eggs": {"test_system": "B. ovis eggs", "test": "Egg hatching in Bovicola ovis", "format": "in vivo", "details": "10 mM, 10 eggs per replicate", "method": "B. ovis eggs were collected from the wool of sheep that were infested with this parasite. The eggs were collected using forceps and with the aid of a dissecting microscope and placed in 24 well tissue culture plates in duplicate lots of 10 eggs per replicate. The eggs were then exposed to either methanol alone (solvent control) or the test compounds for either 10 minutes or 1 minute or left as untreated controls before being removed from the wells and placed into individual glass vials containing a diet at the base of the tube. The tubes were placed in plastic containers containing a salt solution (to keep humidity constant at 68%) and the containers maintained at a temperature 32° C. The eggs were monitored for hatching over the following 12 days and % hatch inhibition determined in comparison to the controls."}, "lice eggs": {"test_system": "lice eggs", "test": "Time-course in vitro lice egg hatching assay", "format": "in vivo, clothing lice (Pediculus humanus humanus)"}, "[3]": {"test_system": "Helicoverpa armigera eggs (Tatura×Toowoomba strains)", "test": "Egg hatching of Helicoverpa armigera", "details": "for % Inhibition: relative to control"}, "[4]": {"details": "10 mM inhibitor alone, (+ve) control"}, "[5]": {"details": "10 mM inhibitor followed by 2 second exposure to 1 mM FeSO4"}, "[6]": {"details": "10 mM inhibitor followed by 2 second exposure to 5 mM FeSO4"}, "[7]": {"details": "10 mM inhibitor followed by 2 second exposure to 10 mM FeSO4"}, "[8]": {"details": "10 mM inhibitor followed by 2 second exposure to MEOH"}, "[9]": {"details": "Table 9, 0.001 mM, dipped 2-10 seconds, day 6 post laying"}, "[10]": {"details": "Table 9, 0.01 mM, dipped 2-10 seconds, day 6 post laying"}, "[11]": {"details": "Table 9, 0.1 mM, dipped 2-10 seconds, day 6 post laying"}, "[12]": {"details": "Table 9, 1 mM, dipped 2-10 seconds, day 6 post laying"}, "[13]": {"details": "Table 9, 10 mM, dipped 2-10 seconds, day 6 post laying"}, "[14]": {"details": "Table 10, 0.01 mM, eggs laid on cloth"}, "[15]": {"details": "Table 10, 0.1 mM, eggs laid on cloth"}, "[16]": {"details": "Table 10, 1 mM, eggs laid on cloth"}, "[17]": {"details": "Table 10, 10 mM, eggs laid on cloth"}, "[18]": {"details": "Table 11, 0.01 mM, eggs laid on parafilm"}, "[19]": {"details": "Table 11, 0.1 mM, eggs laid on parafilm"}, "[20]": {"details": "Table 11, 1 mM, eggs laid on parafilm"}, "[21]": {"details": "Table 14, 1 mM, exposed 2-10 seconds, day 6 post laying"}, "[22]": {"details": "Table 14, 10 mM, exposed 2-10 seconds, day 6 post laying"}}}
{"smiles": "Cc1cccc(-c2cccc(C)n2)n1", "note": "[6,6′-dimethyl-2,2′-dipyridyl]", "values": [{"measurement": "% Inhibition", "setting": "[1]; [4]", "value": 100, "unit": "%"}, {"measurement": "Number hatched", "setting": "[1]; [4]", "value": 0}, {"measurement": "Number unhatched", "setting": "[1]; [4]", "value": 44}, {"measurement": "Number hatched", "setting": "[1]; [5]", "value": 33}, {"measurement": "Number unhatched", "setting": "[1]; [5]", "value": 1}, {"measurement": "% Inhibition", "setting": "[1]; 10 mM inhibitor followed by 2 second exposure to 1 mM FeSO4, relative to the FeSO4 controls", "value": 3, "unit": "%"}, {"measurement": "Number hatched", "setting": "[1]; [6]", "value": 25}, {"measurement": "Number unhatched", "setting": "[1]; [6]", "value": 0}, {"measurement": "% Inhibition", "setting": "[1]; 10 mM inhibitor followed by 2 second exposure to 5 mM FeSO4, relative to the FeSO4 controls", "value": 0, "unit": "%"}, {"measurement": "Number hatched", "setting": "[1]; [7]", "value": 12}, {"measurement": "Number unhatched", "setting": "[1]; [7]", "value": 19}, {"measurement": "% Inhibition", "setting": "[1]; 10 mM inhibitor followed by 2 second exposure to 10 mM FeSO4, relative to the FeSO4 controls", "value": 38, "unit": "%"}, {"measurement": "Number hatched", "setting": "[1]; [8]", "value": 3}, {"measurement": "Number unhatched", "setting": "[1]; [8]", "value": 28}, {"measurement": "Number hatched", "setting": "[2]; [9]", "value": 11}, {"measurement": "Number unhatched", "setting": "[2]; [9]", "value": 6}, {"measurement": "% Inhibition", "setting": "[2]; Table 9, 0.001 mM, relative to control (100% MeOH)", "value": 0, "unit": "%"}, {"measurement": "Number hatched", "setting": "[2]; [10]", "value": 13}, {"measurement": "Number unhatched", "setting": "[2]; [10]", "value": 7}, {"measurement": "% Inhibition", "setting": "[2]; Table 9, 0.01 mM, relative to control (100% MeOH)", "value": 0, "unit": "%"}, {"measurement": "Number hatched", "setting": "[2]; [11]", "value": 23}, {"measurement": "Number unhatched", "setting": "[2]; [11]", "value": 29}, {"measurement": "% Inhibition", "setting": "[2]; Table 9, 0.1 mM, relative to control (100% MeOH)", "value": 0, "unit": "%"}, {"measurement": "Number hatched", "setting": "[2]; [12]", "value": 0}, {"measurement": "Number unhatched", "setting": "[2]; [12]", "value": 26}, {"measurement": "% Inhibition", "setting": "[2]; Table 9, 1 mM, relative to control (100% MeOH)", "value": 100, "unit": "%"}, {"measurement": "% Inhibition", "setting": "[2]; Table 9, 1 mM, relative to control (100% MeOH), listed as 6,6′dimethyl-2,2′dipyridyl", "value": "strong ovicidal effects"}, {"measurement": "Number hatched", "setting": "[2]; [13]", "value": 0}, {"measurement": "Number unhatched", "setting": "[2]; [13]", "value": 79}, {"measurement": "% Inhibition", "setting": "[2]; Table 9, 10 mM, relative to control (100% MeOH)", "value": 100, "unit": "%"}, {"measurement": "% Inhibition", "setting": "[2]; Table 9, 10 mM, relative to control (100% MeOH), listed as 6,6′dimethyl-2,2′dipyridyl", "value": "strong ovicidal effects"}, {"measurement": "Number hatched", "setting": "[2]; [14]", "value": 23}, {"measurement": "Number unhatched", "setting": "[2]; [14]", "value": 4}, {"measurement": "% Inhibition", "setting": "[2]; Table 10, 0.01 mM, eggs laid on cloth, relative to controls", "value": 12, "unit": "%"}, {"measurement": "Number hatched", "setting": "[2]; [15]", "value": 49}, {"measurement": "Number unhatched", "setting": "[2]; [15]", "value": 49}, {"measurement": "% Inhibition", "setting": "[2]; Table 10, 0.1 mM, eggs laid on cloth, relative to controls", "value": 0, "unit": "%"}, {"measurement": "Number hatched", "setting": "[2]; [16]", "value": 0}, {"measurement": "Number unhatched", "setting": "[2]; [16]", "value": 23}, {"measurement": "% Inhibition", "setting": "[2]; Table 10, 1 mM, eggs laid on cloth, relative to controls", "value": 100, "unit": "%"}, {"measurement": "Number hatched", "setting": "[2]; [17]", "value": 0}, {"measurement": "Number unhatched", "setting": "[2]; [17]", "value": 53}, {"measurement": "% Inhibition", "setting": "[2]; Table 10, 10 mM, eggs laid on cloth, relative to controls", "value": 100, "unit": "%"}, {"measurement": "Number hatched", "setting": "[2]; [18]", "value": 92}, {"measurement": "Number unhatched", "setting": "[2]; [18]", "value": 4}, {"measurement": "% Inhibition", "setting": "[2]; Table 11, 0.01 mM, eggs laid on parafilm, relative to controls", "value": 0, "unit": "%"}, {"measurement": "Number hatched", "setting": "[2]; [19]", "value": 65}, {"measurement": "Number unhatched", "setting": "[2]; [19]", "value": 70}, {"measurement": "% Inhibition", "setting": "[2]; Table 11, 0.1 mM, eggs laid on parafilm, relative to controls", "value": 7, "unit": "%"}, {"measurement": "Number hatched", "setting": "[2]; [20]", "value": 0}, {"measurement": "Number unhatched", "setting": "[2]; [20]", "value": 63}, {"measurement": "% Inhibition", "setting": "[2]; Table 11, 1 mM, eggs laid on parafilm, relative to controls", "value": 100, "unit": "%"}, {"measurement": "Number hatched", "setting": "[2]; Table 11, 10 mM, eggs laid on parafilm", "value": 0}, {"measurement": "% Inhibition", "setting": "[2]; Table 11, 10 mM, eggs laid on parafilm, relative to controls", "value": 100, "unit": "%"}, {"measurement": "Number unhatched", "setting": "B. ovis eggs; 1 minute exposure", "value": 10}, {"measurement": "Number unhatched", "setting": "B. ovis eggs; 10 minute exposure", "value": 10}, {"measurement": "% Inhibition of lice egg hatching (maximum over the time-course)", "setting": "lice eggs; 10 mM", "value": 100, "unit": "%"}, {"measurement": "H (number of eggs successfully hatched)", "setting": "lice eggs; Table 6, […], per replicate", "value": 0}, {"measurement": "Ph (number of eggs partly hatched)", "setting": "lice eggs; Table 6, […], per replicate", "value": 0}, {"measurement": "lice egg hatching", "setting": "lice eggs; in vivo", "value": "completely inhibited"}, {"measurement": "% Inhibition", "setting": "[3]; Table 14, 0.001 mM", "value": 0, "unit": "%"}, {"measurement": "% Inhibition", "setting": "[3]; Table 14, 0.01 mM", "value": 0, "unit": "%"}, {"measurement": "% Inhibition", "setting": "[3]; Table 14, 0.1 mM", "value": 0, "unit": "%"}, {"measurement": "Number hatched", "setting": "[3]; [21]", "value": 4}, {"measurement": "Number unhatched", "setting": "[3]; [21]", "value": 140}, {"measurement": "% Inhibition", "setting": "[3]; Table 14, 1 mM", "value": 97, "unit": "%"}, {"measurement": "% Inhibition", "setting": "[3]; Table 14, 1 mM, listed as 6,6′dimethyl-2,2′dipyridyl", "value": "significantly inhibit egg hatching"}, {"measurement": "Number hatched", "setting": "[3]; [22]", "value": 7}, {"measurement": "Number unhatched", "setting": "[3]; [22]", "value": 98}, {"measurement": "% Inhibition", "setting": "[3]; Table 14, 10 mM", "value": 94, "unit": "%"}, {"measurement": "% Inhibition", "setting": "[3]; Table 14, 10 mM, listed as 6,6′dimethyl-2,2′dipyridyl", "value": "significantly inhibit egg hatching"}, {"measurement": "Number hatched", "setting": "[3]; Table 15, 0.1 mM", "value": 70}, {"measurement": "Number unhatched", "setting": "[3]; Table 15, 0.1 mM", "value": 0}, {"measurement": "Number hatched", "setting": "[3]; Table 15, 1 mM", "value": 2}, {"measurement": "Number unhatched", "setting": "[3]; Table 15, 1 mM", "value": 61}, {"measurement": "Number hatched", "setting": "[3]; Table 15, 10 mM", "value": 3}, {"measurement": "Number unhatched", "setting": "[3]; Table 15, 10 mM", "value": 48}]}
